Results from the NIST ThermoML archive (doi:10.1021/je0495785).
Numbers after ± are expanded uncertainties.

Experiments:
[1] = for Normal melting temperature: Crystal, DTA; for Normal boiling temperature: Liquid, not specified, probably DSC
[2] = molar enthalpy of vaporization or sublimation; conditions: Liquid, DSC
[3] = molar heat capacity at constant pressure; conditions: 101.33 kPa, Small sample (50 mg) DSC
[4] = Molar enthalpy of transition or fusion; conditions: Crystal; DSC

Q: What does the source list for `Cc1cccc(N(c2cccc(C)c2)c2cccc(C)c2)c1` [3-methyl-N,N-bis(3-methylphenyl)benzenamine]?
A: Normal melting temperature [1]: 39.81 ± 2 °C; Normal boiling temperature [1]: 294.84 ± 100 °C; molar enthalpy ([2]; 567.99 K): 8.98 ± 0.956 kcal/mol; molar heat capacity at constant pressure ([3]; 240 K, Crystal): 1455.4 ± 150 J/K/mol; molar heat capacity at constant pressure ([3]; 245 K, Crystal): 1383 ± 140 J/K/mol; molar heat capacity at constant pressure ([3]; 250 K, Crystal): 1322.8 ± 130 J/K/mol; molar heat capacity at constant pressure ([3]; 255 K, Crystal): 1274.6 ± 130 J/K/mol; molar heat capacity at constant pressure ([3]; 260 K, Crystal): 1238.6 ± 130 J/K/mol; molar heat capacity at constant pressure ([3]; 265 K, Crystal): 1214.8 ± 120 J/K/mol; molar heat capacity at constant pressure ([3]; 270 K, Crystal): 1203 ± 120 J/K/mol; molar heat capacity at constant pressure ([3]; 275 K, Crystal): 1203.4 ± 120 J/K/mol; molar heat capacity at constant pressure ([3]; 280 K, Crystal): 1216 ± 120 J/K/mol; molar heat capacity at constant pressure ([3]; 285 K, Crystal): 1240.6 ± 130 J/K/mol; molar heat capacity at constant pressure ([3]; 290 K, Crystal): 1277.4 ± 130 J/K/mol; molar heat capacity at constant pressure ([3]; 295 K, Crystal): 1326.3 ± 130 J/K/mol; molar heat capacity at constant pressure ([3]; 300 K, Crystal): 1387.4 ± 140 J/K/mol; molar heat capacity at constant pressure ([3]; 306 K, Crystal): 1476.7 ± 150 J/K/mol; molar heat capacity at constant pressure ([3]; 336 K, Liquid): 1250.8 ± 130 J/K/mol; molar heat capacity at constant pressure ([3]; 341 K, Liquid): 1249.7 ± 130 J/K/mol; molar heat capacity at constant pressure ([3]; 346 K, Liquid): 1249.5 ± 130 J/K/mol; molar heat capacity at constant pressure ([3]; 351 K, Liquid): 1250.1 ± 130 J/K/mol; molar heat capacity at constant pressure ([3]; 356 K, Liquid): 1251.5 ± 130 J/K/mol; molar heat capacity at constant pressure ([3]; 361 K, Liquid): 1253.8 ± 130 J/K/mol; molar heat capacity at constant pressure ([3]; 366 K, Liquid): 1257 ± 130 J/K/mol; molar heat capacity at constant pressure ([3]; 371 K, Liquid): 1261 ± 130 J/K/mol; molar heat capacity at constant pressure ([3]; 376 K, Liquid): 1265.8 ± 130 J/K/mol; molar heat capacity at constant pressure ([3]; 381 K, Liquid): 1271.5 ± 130 J/K/mol; Molar enthalpy of transition or fusion [4]: 3.12 ± 0.311 kcal/mol

Q: With `Cc1ccc(N(c2ccc(C)cc2)c2cccc(C)c2)cc1` [3-methyl-N,N-bis(4-methylphenyl)benzenamine] as the compound, how does the Normal melting temperature [1] read?
A: 56.70 ± 2 °C

Q: And the Normal boiling temperature [1]?
A: 315.94 ± 100 °C

Q: What about the molar enthalpy ([2]; 589.09 K) of the same compound?
A: 18.1 ± 3.82 kcal/mol

Q: And the “molar heat capacity at constant pressure” value ([3]; 298 K, Crystal)?
A: 417.01 ± 42 J/K/mol

Q: What about the “molar heat capacity at constant pressure” value ([3]; 303 K, Crystal) of the same compound?
A: 369.25 ± 37 J/K/mol

Q: And the “molar heat capacity at constant pressure” value ([3]; 308 K, Crystal)?
A: 351.52 ± 35 J/K/mol

Q: What about the “molar heat capacity at constant pressure” value ([3]; 313 K, Crystal) of the same compound?
A: 363.76 ± 37 J/K/mol

Q: And the “molar heat capacity at constant pressure” value ([3]; 318 K, Crystal)?
A: 406.01 ± 41 J/K/mol

Q: And the “molar heat capacity at constant pressure” value ([3]; 323 K, Crystal)?
A: 478.26 ± 48 J/K/mol

Q: What about the “molar heat capacity at constant pressure” value ([3]; 325 K, Crystal) of the same compound?
A: 515.56 ± 52 J/K/mol

Q: And the “molar heat capacity at constant pressure” value ([3]; 339 K, Liquid)?
A: 442.71 ± 45 J/K/mol

Q: And the “molar heat capacity at constant pressure” value ([3]; 343 K, Liquid)?
A: 440.93 ± 45 J/K/mol

Q: What about the “molar heat capacity at constant pressure” value ([3]; 348 K, Liquid) of the same compound?
A: 438.63 ± 44 J/K/mol

Q: And the “molar heat capacity at constant pressure” value ([3]; 353 K, Liquid)?
A: 436.24 ± 44 J/K/mol

Q: What about the “molar heat capacity at constant pressure” value ([3]; 358 K, Liquid) of the same compound?
A: 433.8 ± 44 J/K/mol

Q: What about the “molar heat capacity at constant pressure” value ([3]; 363 K, Liquid) of the same compound?
A: 431.3 ± 44 J/K/mol

Q: What about the “molar heat capacity at constant pressure” value ([3]; 368 K, Liquid) of the same compound?
A: 428.71 ± 43 J/K/mol

Q: What about the “molar heat capacity at constant pressure” value ([3]; 373 K, Liquid) of the same compound?
A: 426.07 ± 43 J/K/mol

Q: And the “molar heat capacity at constant pressure” value ([3]; 378 K, Liquid)?
A: 423.34 ± 43 J/K/mol

Q: And the “molar heat capacity at constant pressure” value ([3]; 383 K, Liquid)?
A: 420.55 ± 42 J/K/mol

Q: What about the “molar heat capacity at constant pressure” value ([3]; 388 K, Liquid) of the same compound?
A: 417.68 ± 42 J/K/mol

Q: What about the “molar heat capacity at constant pressure” value ([3]; 393 K, Liquid) of the same compound?
A: 414.74 ± 42 J/K/mol

Q: And the “Molar enthalpy of transition or fusion” value [4]?
A: 5.19 ± 0.526 kcal/mol

Q: Which results are given for `Cc1ccc(N(c2cccc(C)c2)c2cccc(C)c2)cc1` [3-methyl-N-(3-methylphenyl)-N-(4-methylphenyl)benzenamine]?
A: Normal melting temperature [1]: 89.50 ± 2 °C; Normal boiling temperature [1]: 274.1 ± 100 °C; molar enthalpy ([2]; 547.3 K): 16.6 ± 3.59 kcal/mol; molar heat capacity at constant pressure ([3]; 330 K, Crystal): 114.18 ± 12 J/K/mol; molar heat capacity at constant pressure ([3]; 335 K, Crystal): 117.34 ± 12 J/K/mol; molar heat capacity at constant pressure ([3]; 340 K, Crystal): 98.12 ± 9.9 J/K/mol; molar heat capacity at constant pressure ([3]; 365 K, Liquid): 143.7 ± 15 J/K/mol; molar heat capacity at constant pressure ([3]; 369 K, Liquid): 141.06 ± 14 J/K/mol; molar heat capacity at constant pressure ([3]; 372 K, Liquid): 137.86 ± 14 J/K/mol; Molar enthalpy of transition or fusion [4]: 6.31 ± 0.645 kcal/mol

Q: Which Normal melting temperature [1] does the source give for `Cc1ccc(N(c2ccc(C)cc2)c2ccc(C)cc2)cc1` [tri-tolylamine] here?
A: 115.59 ± 2 °C

Q: What about the Normal boiling temperature [1] of the same compound?
A: 300.89 ± 100 °C

Q: And the molar enthalpy ([2]; 574.04 K)?
A: 17.3 ± 3.82 kcal/mol

Q: What about the “Molar enthalpy of transition or fusion” value [4] of the same compound?
A: 4.77 ± 0.478 kcal/mol
